Legend:
Format in all cases: biochemical
EGFR (ErbB1) T790M L858R = EGFR (ErbB1) T790M L858R (Homo sapiens (Human), UniProt P00533, L858R/T790M); test: Z'-LYTE kinase inhibition assay, EGFR L858R/T790M; conditions: for inhibition at 1 µM: read-out: % inhibition EGFR L858R/T790M (Compound at 1 μM); for inhibition at 0.0137 µM: read-out: % inhibition EGFR L858R/T790M (Compound at 0.0137 μM)
Protocol: Inhibitory activities of compounds against BTK, EGFR and EGFR mutants (EGFR L858R, EGFR T790M, EGFR L858R/T790M), FGFR1, FGFR2, JAK2, JAK3 and KDR were measured by Invitrogen using Z'-LYTE® Method as briefly described in the following. Test Compounds are screened in 1% DMSO (final) in the well. For 10 point titrations, 3-fold serial dilutions are conducted from the starting concentration. All ATP Solutions are diluted to a 4× working concentration in Kinase Buffer (50 mM HEPES pH 7.5, 0.01% BRIJ-35, 10 mM MgCl2, 1 mM EGTA). Peptide/Kinase Mixtures are diluted to a 2× working concentration in the appropriate Kinase Buffers as described below. (iv) Peptide/Kinase Mixtures for Measurement of EGFR (ErbB1) T790M L858R: The 2×EGFR (ErbB1) […] mixture is prepared in 50 mM HEPES pH 6.5, 0.01% BRIJ-35, 10 mM MgCl2, 1 mM EGTA, 0.02% NaN3. […] After the 1 hour Kinase Reaction incubation, 5 μL of a 1:64 dilution of Development Reagent B is added. Reaction starts by 30-second shaking of mixture consisting of 2.5 μL 4× test compound, 5 μL 2× kinase reaction mixture and 2.5 μL 4×ATP Solution on Bar-coded Corning, low volume NBS, black 384-well plate (Corning Cat. #3676). Then the mixture is incubated for 60-minute at room temperature for the kinase reaction, followed by addition of 5 μL of a 1:1024 dilution of development reagent A and 30-second plate shake. The mixture is then incubated for another 60-minute at room temperature for development reaction. Finally fluorescence is read by plate reader. To determine IC50 of a compound against EGFR, EGFR mutant and other kinases, a series of concentrations of the compound were tested for the inhibition.

FGFR1 = FGFR1 (Homo sapiens (Human), UniProt P11362); test: Z'-LYTE kinase inhibition assay, FGFR1; conditions: read-out: % inhibition FGFR1; heading: % inhibition FGFR1; compound at 0.041 μM
Chain of FGFR1 (P11362 22-822): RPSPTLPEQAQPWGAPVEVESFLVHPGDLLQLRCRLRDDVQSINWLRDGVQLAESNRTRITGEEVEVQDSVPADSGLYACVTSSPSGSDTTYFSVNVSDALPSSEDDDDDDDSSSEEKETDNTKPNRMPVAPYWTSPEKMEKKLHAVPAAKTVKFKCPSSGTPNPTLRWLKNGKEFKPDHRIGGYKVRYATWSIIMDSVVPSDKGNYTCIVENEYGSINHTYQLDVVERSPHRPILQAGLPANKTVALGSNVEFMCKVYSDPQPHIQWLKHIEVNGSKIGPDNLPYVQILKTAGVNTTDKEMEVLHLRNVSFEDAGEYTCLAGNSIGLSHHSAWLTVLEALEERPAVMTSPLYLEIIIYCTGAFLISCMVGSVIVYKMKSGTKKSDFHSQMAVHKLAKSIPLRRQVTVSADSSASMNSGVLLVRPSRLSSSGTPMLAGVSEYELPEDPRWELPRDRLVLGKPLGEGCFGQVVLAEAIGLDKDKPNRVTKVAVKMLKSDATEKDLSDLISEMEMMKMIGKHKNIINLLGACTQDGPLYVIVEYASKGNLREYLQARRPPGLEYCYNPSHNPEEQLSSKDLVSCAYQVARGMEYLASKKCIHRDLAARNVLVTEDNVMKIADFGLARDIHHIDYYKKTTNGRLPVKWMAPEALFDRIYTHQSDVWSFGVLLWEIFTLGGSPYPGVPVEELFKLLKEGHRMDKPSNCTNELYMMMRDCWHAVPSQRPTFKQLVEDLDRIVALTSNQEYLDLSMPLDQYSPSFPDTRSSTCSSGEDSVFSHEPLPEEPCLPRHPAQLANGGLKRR
Protocol: (§1) Inhibitory activities of compounds against BTK, EGFR and EGFR mutants (EGFR L858R, EGFR T790M, EGFR L858R/T790M), FGFR1, FGFR2, JAK2, JAK3 and KDR were measured by Invitrogen using Z′-LYTE® Method as briefly described in the following.
(§2) Test Compounds are screened in 1% DMSO (final) in the well. For 10 point titrations, 3-fold serial dilutions are conducted from the starting concentration. All ATP Solutions are diluted to a 4× working concentration in Kinase Buffer (50 mM HEPES pH 7.5, 0.01% BRIJ-35, 10 mM MgCl2, 1 mM EGTA). Peptide/Kinase Mixtures are diluted to a 2× working concentration in the appropriate Kinase Buffers as described below.
(v) Peptide/Kinase Mixtures for Measurement of FGFR1:
The 2×FGFR1/Tyr 04 mixture is prepared in 50 mM HEPES pH 7.5, 0.01% BRIJ-35, 10 mM MgCl2, 4 mM MnCl2, 1 mM EGTA, 2 mM DTT. The final 10 μL Kinase Reaction consists of 0.41-3.5 ng FGFR1 and 2 μM Tyr 04 in 50 mM HEPES pH 7.5, 0.01% BRIJ-35, 10 mM MgCl2, 2 mM MnCl2, 1 mM EGTA, 1 mM DTT. After the 1 hour Kinase Reaction incubation, 5 μL of a 1:64 dilution of Development Reagent B is added.
(§3) Reaction starts by 30-second shaking of mixture consisting of 2.5 μL 4× test compound, 5 μL 2× kinase reaction mixture and 2.5 μL 4×ATP Solution on Bar-coded Corning, low volume NBS, black 384-well plate (Corning Cat. #3676). Then the mixture is incubated for 60-minute at room temperature for the kinase reaction, followed by addition of 5 μL of a 1:1024 dilution of development reagent A and 30-second plate shake. The mixture is then incubated for another 60-minute at room temperature for development reaction. Finally fluorescence is read by plate reader.
(§4) To determine IC50 of a compound against EGFR, EGFR mutant and other kinases, a series of concentrations of the compound were tested for the inhibition. […] The scale utilized in Table 4 is as follows: +++ less than 100 nM, ++ 100-500 nM and + greater than 500 nM.

JAK2 = JAK2 (Homo sapiens (Human), UniProt O60674); test: Z'-LYTE kinase inhibition assay, JAK2; conditions: read-out: % inhibition JAK2; heading: % inhibition JAK2; compound at 0.041 μM
Chain of JAK2 (O60674 whole entry): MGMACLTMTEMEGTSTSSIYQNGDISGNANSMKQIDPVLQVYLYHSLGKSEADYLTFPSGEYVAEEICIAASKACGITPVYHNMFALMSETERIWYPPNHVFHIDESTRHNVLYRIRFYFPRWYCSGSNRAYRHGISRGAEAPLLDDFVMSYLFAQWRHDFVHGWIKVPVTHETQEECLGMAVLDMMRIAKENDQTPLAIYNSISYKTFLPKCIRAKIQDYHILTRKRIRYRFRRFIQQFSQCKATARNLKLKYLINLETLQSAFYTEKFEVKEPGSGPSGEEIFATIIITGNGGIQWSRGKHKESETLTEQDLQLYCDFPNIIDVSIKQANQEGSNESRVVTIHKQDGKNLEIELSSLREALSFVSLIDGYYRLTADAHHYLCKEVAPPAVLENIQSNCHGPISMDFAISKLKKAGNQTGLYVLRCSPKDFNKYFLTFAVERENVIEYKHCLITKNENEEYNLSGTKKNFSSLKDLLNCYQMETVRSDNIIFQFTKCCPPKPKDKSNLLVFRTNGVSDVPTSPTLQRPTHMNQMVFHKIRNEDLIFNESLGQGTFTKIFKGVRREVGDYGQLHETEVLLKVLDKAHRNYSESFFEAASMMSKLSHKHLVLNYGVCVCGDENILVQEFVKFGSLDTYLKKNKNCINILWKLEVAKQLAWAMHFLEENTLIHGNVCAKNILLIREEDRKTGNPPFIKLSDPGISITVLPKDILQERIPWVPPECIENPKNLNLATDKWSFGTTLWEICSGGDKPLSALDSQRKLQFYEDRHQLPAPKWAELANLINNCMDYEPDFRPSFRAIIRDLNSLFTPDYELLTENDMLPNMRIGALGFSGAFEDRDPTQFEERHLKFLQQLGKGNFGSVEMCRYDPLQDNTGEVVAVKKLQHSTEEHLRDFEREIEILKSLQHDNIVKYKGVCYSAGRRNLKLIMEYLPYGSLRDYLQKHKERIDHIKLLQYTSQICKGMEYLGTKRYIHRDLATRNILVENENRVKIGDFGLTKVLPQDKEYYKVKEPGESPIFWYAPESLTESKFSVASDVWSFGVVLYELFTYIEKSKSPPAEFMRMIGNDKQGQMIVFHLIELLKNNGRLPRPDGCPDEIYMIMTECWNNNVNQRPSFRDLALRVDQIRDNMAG
Protocol: as §1, §2
(v) Peptide/Kinase Mixtures for Measurement of JAK2:
The 2×JAK2/Tyr 06 mixture is prepared in 50 mM HEPES pH 7.5, 0.01% BRIJ-35, 10 mM MgCl2, 1 mM EGTA. The final 10 μL Kinase Reaction consists of 0.06-0.81 ng JAK2 and 2 μM Tyr 06 in 50 mM HEPES pH 7.5, 0.01% BRIJ-35, 10 mM MgCl2, 1 mM EGTA. After the 1 hour Kinase Reaction incubation, 5 μL of a 1:64 dilution of Development Reagent A is added.
as §3

BTK = BTK (Homo sapiens (Human), UniProt Q06187); test: Z'-LYTE kinase inhibition assay, BTK; conditions: read-out: % inhibition BTK; heading: % inhibition BTK; compound at 0.041 μM
Chain of BTK (Q06187 whole entry): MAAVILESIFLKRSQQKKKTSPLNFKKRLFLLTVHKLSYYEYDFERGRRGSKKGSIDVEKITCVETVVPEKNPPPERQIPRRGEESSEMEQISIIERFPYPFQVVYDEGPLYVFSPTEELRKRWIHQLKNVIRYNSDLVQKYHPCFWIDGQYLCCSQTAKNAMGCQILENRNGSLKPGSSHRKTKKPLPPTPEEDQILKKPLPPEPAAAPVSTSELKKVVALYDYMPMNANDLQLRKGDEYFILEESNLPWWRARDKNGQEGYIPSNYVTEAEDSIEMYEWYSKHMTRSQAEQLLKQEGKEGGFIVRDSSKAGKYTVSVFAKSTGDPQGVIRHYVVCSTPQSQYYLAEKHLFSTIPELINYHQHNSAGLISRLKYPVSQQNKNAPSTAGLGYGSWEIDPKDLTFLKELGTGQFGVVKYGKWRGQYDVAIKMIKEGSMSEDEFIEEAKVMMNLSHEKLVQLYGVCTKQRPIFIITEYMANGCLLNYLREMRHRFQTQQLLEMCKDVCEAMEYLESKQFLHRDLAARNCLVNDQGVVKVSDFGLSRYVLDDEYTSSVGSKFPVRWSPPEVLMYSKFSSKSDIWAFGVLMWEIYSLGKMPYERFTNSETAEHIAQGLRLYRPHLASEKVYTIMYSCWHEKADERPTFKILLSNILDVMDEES
Protocol: as §1, §2
(v) Peptide/Kinase Mixtures for Measurement of BTK:
The 2×BTK/Tyr 01 mixture is prepared in 50 mM HEPES pH 7.5, 0.01% BRIJ-35, 10 mM MgCl2, 1 mM EGTA.
The mixture is then incubated for another 60-minute at room temperature for development reaction. Finally fluorescence is read by plate reader.
as §4

Chain of EGFR (ErbB1) T790M L858R (P00533 25-1210 T790M/L858R): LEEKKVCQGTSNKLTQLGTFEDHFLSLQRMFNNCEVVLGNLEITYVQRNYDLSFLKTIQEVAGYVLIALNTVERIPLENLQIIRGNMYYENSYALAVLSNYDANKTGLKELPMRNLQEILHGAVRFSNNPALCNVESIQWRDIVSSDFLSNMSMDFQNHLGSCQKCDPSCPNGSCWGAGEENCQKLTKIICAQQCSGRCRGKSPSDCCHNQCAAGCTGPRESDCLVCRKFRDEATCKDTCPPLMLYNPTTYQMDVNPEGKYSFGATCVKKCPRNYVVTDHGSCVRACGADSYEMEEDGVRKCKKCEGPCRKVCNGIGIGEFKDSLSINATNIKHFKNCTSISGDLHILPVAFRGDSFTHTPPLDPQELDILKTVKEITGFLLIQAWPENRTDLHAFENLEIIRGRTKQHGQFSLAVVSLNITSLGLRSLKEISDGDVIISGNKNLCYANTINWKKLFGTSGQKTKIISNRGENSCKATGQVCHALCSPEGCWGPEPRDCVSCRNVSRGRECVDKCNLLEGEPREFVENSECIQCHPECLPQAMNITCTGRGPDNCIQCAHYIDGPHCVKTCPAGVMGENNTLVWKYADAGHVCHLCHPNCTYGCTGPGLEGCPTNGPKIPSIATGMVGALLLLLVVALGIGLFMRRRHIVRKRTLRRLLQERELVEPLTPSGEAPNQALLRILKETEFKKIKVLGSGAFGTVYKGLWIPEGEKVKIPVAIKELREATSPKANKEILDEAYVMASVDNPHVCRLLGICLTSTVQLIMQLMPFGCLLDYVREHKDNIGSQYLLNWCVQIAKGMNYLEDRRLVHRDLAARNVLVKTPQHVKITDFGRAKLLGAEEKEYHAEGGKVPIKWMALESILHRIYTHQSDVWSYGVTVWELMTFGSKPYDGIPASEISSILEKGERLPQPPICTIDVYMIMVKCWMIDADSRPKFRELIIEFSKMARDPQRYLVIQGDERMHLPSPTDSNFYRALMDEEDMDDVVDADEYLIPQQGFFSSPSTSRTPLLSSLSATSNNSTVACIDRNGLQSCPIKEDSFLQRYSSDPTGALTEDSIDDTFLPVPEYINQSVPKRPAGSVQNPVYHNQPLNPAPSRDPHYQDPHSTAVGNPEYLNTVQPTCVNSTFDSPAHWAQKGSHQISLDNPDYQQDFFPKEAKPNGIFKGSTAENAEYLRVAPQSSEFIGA

inhibition at 0.041 µM (JAK2) | inhibition at 0.041 µM (BTK) | SMILES | inhibition at 0.0137 µM (EGFR (ErbB1) T790M L858R) | further results
– | – | C=CC(=O)Nc1cccc(-c2c(C)ccc3cnc(Nc4ccc(N5CCN(C)CC5)cc4)nc23)c1 [Example C034, N-(3-(7-methyl-2-((4-(4-methylpiperazin-1-yl)phenyl)amino)quinazolin-8-yl)phenyl)acrylamide] | – | inhibition at 1 µM (EGFR (ErbB1) T790M L858R): > 50%
– | – | C=CC(=O)Nc1cccc(-c2cccc3cnc(Nc4ccc(N5CCN(C)CC5)cc4F)nc23)c1 [Example C044, N-(3-(2-((2-fluoro-4-(4-methylpiperazin-1-yl)phenyl)amino)quinazolin-8-yl)phenyl)acrylamide] | – | inhibition at 0.041 µM (FGFR1): < 50%
– | – | C=CC(=O)Nc1cccc(-c2cccc3cnc(Nc4ccc(NC5CCN(C)CC5F)cc4)nc23)c1 (stereo not shown) [Example C105, N-(3-(2-((4-((3-fluoro-1-methylpiperidin-4-yl)amino)phenyl)amino)quinazolin-8-yl)phenyl)acrylamide] | > 50% | –
< 50% | < 50% | C=CC(=O)Nc1cccc(-c2cccc3cnc(Nc4ccc(N5CCN(C)CC5)nc4OC)nc23)c1 [Example C055, N-(3-(2-((2-methoxy-6-(4-methylpiperazin-1-yl)pyridin-3-yl)amino)quinazolin-8-yl)phenyl)acrylamide] | – | –
– | – | C=CC(=O)Nc1cccc(-c2cccc3cnc(Nc4ccc(N5CCN(C(C)=O)CC5)nc4)nc23)c1 [Example C036, N-(3-(2-((6-(4-acetylpiperazin-1-yl)pyridin-3-yl)amino)quinazolin-8-yl)phenyl)acrylamide] | – | inhibition at 0.041 µM (FGFR1): < 50%
– | – | C=CC(=O)Nc1cccc(-c2cccc3cnc(Nc4ccc(N5CCN(C)CC5)nc4)nc23)c1 [Example C041, N-(3-(2-((6-(4-methylpiperazin-1-yl)pyridin-3-yl)amino)quinazolin-8-yl)phenyl)acrylamide] | > 50% | –
< 50% | > 50% | C=CC(=O)Nc1cccc(-c2nccc3c(N)nc(Nc4ccc(N5CCOCC5)cc4)nc23)c1 [Example C005, N-(3-(4-amino-2-((4-morpholinophenyl)amino)pyrido[3,4-d]pyrimidin-8-yl)phenyl)acrylamide] | – | –
> 50% | > 50% | CC(=O)Nc1cccc(-c2cccc3cnc(Nc4ccc(N5CCN(C)CC5)cc4)nc23)c1 [Example C022, N-(3-(2-((4-(4-methylpiperazin-1-yl)phenyl)amino)quinazolin-8-yl)phenyl)acetamide] | – | –
– | – | Fc1cccc(-c2cccc3cnc(Nc4ccc(N5CCNCC5)cc4)nc23)c1 [Example C027, 8-(3-fluorophenyl)-N-(4-(piperazin-1-yl)phenyl)quinazolin-2-amine] | – | inhibition at 0.041 µM (FGFR1): > 50%
– | – | C=CC(=O)Nc1cccc(-c2cccc3cnc(Nc4ccc(N5CCN(C)CC5)c(C(N)=O)c4)nc23)c1 [Example C085, 5-((8-(3-acrylamidophenyl)quinazolin-2-yl)amino)-2-(4-methylpiperazin-1-yl)benzamide] | > 50% | –
< 50% | > 50% | C=CC(=O)Nc1cccc(-c2c(C)ccc3cnc(Nc4ccc(N5CCOCC5)cc4)nc23)c1 [Example C033, N-(3-(7-methyl-2-((4-morpholinophenyl)amino)quinazolin-8-yl)phenyl)acrylamide] | – | –
> 50% | > 50% | C=CC(=O)Nc1cccc(-c2cccc3cnc(Nc4ccc(N5CCN(C)CC5)cc4)nc23)c1Cl [Example C054, N-(2-chloro-3-(2-((4-(4-methylpiperazin-1-yl)phenyl)amino)quinazolin-8-yl)phenyl)acrylamide] | – | –
– | – | C=CC(=O)Nc1cccc(-c2cccc3cnc(Nc4ccc(N5CCN(C(C)=O)CC5)cc4)nc23)c1Cl [Example C051, N-(3-(2-((4-(4-acetylpiperazin-1-yl)phenyl)amino)quinazolin-8-yl)-2-chlorophenyl)acrylamide] | – | inhibition at 0.041 µM (FGFR1): < 50%
< 50% | > 50% | C=CC(=O)Nc1cccc(-c2nccc3cnc(Nc4ccc(N5CCOCC5)cc4)nc23)c1 [Example C012, N-(3-(2-((4-morpholinophenyl)amino)pyrido[3,4-d]pyrimidin-8-yl)phenyl)acrylamide] | – | –
– | > 50% | C=CC(=O)Nc1cccc(-c2cccc3cnc(Nc4ccc(O[C@H]5CCN(C)C5)cc4)nc23)c1 [Example C121, (S)-N-(3-(2-((4-((1-methylpyrrolidin-3-yl)oxy)phenyl)amino)quinazolin-8-yl)phenyl)acrylamide] | – | –
– | – | C=CC(=O)Nc1cccc(-c2cccc3cnc(Nc4ccc(OC5CCN(C)CC5F)cc4)nc23)c1 (stereo not shown) [Example C079, N-(3-(2-((4-((3-fluoro-1-methylpiperidin-4-yl)oxy)phenyl)amino)quinazolin-8-yl)phenyl)acrylamide] | > 50% | –
– | < 50% | Fc1cccc(-c2cccc3cnc(Nc4ccc(N5CCOCC5)cc4)nc23)c1 [Example C009, 8-(3-fluorophenyl)-N-(4-morpholinophenyl)quinazolin-2-amine] | – | –
> 50% | < 50% | c1ccc(-c2cccc3cnc(Nc4ccc(N5CCOCC5)cc4)nc23)cc1 [Example C004, N-(4-morpholinophenyl)-8-phenylquinazolin-2-amine] | – | –

SMILES | inhibition at 0.041 µM (JAK2) | inhibition at 0.041 µM (BTK) | inhibition at 0.0137 µM (EGFR (ErbB1) T790M L858R) | further results
C=CC(=O)Nc1cccc(-c2cccc3cnc(Nc4ccc(N5CCN(C)CC5)cc4)nc23)c1 [Example C021, N-(3-(2-((4-(4-methylpiperazin-1-yl)phenyl)amino)quinazolin-8-yl)phenyl)acrylamide] | > 50% | – | > 50% | –
C=CC(=O)Nc1cncc(-c2cccc3cnc(Nc4ccc(N5CCN(C)CC5)cc4)nc23)c1 [Example C040, N-(5-(2-((4-(4-methylpiperazin-1-yl)phenyl)amino)quinazolin-8-yl)pyridin-3-yl)acrylamide] | < 50% | > 50% | > 50% | –
C=CC(=O)Nc1cccc(-c2cccc3cnc(Nc4ccc(N5CCN(C(C)=O)CC5)cc4)nc23)c1 [Example C032, N-(3-(2-((4-(4-acetylpiperazin-1-yl)phenyl)amino)quinazolin-8-yl)phenyl)acrylamide] | > 50% | > 50% | < 50% | inhibition at 1 µM (EGFR (ErbB1) T790M L858R): > 50%
